{"source": "paper PMC6746701", "about": "“A phyB-PIF1-SPA1 kinase regulatory complex promotes photomorphogenesis in Arabidopsis” (Nature Communications, 2019)", "key": {"phyB": {"molecular_target": "T1, phyB (Arabidopsis thaliana, UniProt P14713)", "T1 construct": "full length (1172 aa), strep-tagged from Pichia pastoris GS115 or GFP fusion from Saccharomyces cerevisiae; holoprotein with phycocyanobilin; dimer", "T1 sequence (P14713 1-1172)": "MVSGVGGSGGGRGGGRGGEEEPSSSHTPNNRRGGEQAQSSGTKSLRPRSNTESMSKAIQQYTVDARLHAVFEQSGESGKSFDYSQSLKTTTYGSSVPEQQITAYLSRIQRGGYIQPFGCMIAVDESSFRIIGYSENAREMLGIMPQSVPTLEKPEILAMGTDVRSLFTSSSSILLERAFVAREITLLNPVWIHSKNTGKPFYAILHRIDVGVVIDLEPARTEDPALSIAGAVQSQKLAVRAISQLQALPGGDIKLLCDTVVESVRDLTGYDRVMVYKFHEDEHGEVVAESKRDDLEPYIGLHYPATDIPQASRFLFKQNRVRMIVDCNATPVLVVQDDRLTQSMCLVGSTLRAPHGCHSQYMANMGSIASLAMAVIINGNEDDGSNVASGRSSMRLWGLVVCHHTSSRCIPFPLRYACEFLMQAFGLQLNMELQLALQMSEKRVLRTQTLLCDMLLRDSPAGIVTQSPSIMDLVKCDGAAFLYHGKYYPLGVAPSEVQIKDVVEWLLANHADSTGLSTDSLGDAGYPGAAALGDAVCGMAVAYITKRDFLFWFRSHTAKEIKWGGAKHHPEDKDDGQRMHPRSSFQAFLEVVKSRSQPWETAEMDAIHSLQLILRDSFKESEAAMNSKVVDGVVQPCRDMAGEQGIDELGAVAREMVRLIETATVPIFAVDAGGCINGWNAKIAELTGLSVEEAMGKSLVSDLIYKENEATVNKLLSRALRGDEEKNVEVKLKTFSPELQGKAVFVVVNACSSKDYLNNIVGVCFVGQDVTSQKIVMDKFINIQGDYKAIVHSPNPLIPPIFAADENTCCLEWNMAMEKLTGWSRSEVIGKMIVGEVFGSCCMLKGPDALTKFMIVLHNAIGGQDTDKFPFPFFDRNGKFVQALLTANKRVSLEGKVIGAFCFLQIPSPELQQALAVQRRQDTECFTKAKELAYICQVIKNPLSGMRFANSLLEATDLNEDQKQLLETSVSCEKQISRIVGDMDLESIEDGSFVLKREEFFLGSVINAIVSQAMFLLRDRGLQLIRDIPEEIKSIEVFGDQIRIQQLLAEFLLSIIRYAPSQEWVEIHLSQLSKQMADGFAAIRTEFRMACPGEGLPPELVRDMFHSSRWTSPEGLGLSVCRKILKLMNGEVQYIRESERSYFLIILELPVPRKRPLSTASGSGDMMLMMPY", "experiment": "in vitro kinase assay, autoradiogram", "format": "biochemical", "conditions": "PIF1 as co-substrate, 10 mM MgCl2, pH 7.5, 28 °C; labelled compound (gamma-32P)"}, "phyA": {"molecular_target": "T2, phyA (Arabidopsis thaliana, UniProt P14712)", "T2 construct": "holoprotein purified from Saccharomyces cerevisiae", "T2 sequence (P14712 1-1122)": "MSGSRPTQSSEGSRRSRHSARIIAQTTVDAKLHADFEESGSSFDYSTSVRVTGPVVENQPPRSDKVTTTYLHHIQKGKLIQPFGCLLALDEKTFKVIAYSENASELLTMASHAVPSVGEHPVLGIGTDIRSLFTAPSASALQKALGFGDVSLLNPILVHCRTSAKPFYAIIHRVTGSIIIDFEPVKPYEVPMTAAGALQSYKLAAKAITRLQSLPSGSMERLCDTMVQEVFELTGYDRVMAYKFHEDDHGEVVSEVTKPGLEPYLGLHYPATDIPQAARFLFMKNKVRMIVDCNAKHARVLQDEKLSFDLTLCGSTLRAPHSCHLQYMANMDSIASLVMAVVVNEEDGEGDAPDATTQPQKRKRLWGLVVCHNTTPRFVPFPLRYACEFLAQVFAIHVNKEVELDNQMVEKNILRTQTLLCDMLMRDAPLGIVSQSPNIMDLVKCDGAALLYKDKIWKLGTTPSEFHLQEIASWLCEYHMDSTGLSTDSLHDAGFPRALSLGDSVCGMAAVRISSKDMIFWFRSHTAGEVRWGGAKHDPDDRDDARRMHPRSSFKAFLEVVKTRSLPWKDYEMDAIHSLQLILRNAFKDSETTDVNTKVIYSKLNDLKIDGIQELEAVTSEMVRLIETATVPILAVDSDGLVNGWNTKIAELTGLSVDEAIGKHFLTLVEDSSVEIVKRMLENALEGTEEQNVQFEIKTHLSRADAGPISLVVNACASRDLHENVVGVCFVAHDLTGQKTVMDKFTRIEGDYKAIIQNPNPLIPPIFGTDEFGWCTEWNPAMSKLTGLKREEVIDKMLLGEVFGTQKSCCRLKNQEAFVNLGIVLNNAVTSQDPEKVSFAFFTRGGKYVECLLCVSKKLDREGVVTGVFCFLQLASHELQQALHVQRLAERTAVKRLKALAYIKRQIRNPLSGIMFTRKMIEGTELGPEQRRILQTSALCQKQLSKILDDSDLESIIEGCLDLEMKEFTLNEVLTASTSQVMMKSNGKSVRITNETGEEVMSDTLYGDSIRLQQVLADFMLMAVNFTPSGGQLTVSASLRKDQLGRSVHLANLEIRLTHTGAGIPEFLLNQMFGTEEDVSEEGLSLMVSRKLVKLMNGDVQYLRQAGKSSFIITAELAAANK", "experiment": "in vitro kinase assay, autoradiogram", "format": "biochemical", "conditions": "PIF1 as co-substrate, 10 mM MgCl2, pH 7.5, 28 °C; labelled compound (gamma-32P)"}}}
{"smiles": "Nc1ncnc2c1ncn2[C@@H]1O[C@H](COP(=O)(O)OP(=O)(O)OP(=O)(O)O)[C@@H](O)[C@H]1O", "note": "[ATP]", "values": [{"measurement": "in vitro kinase assay, autoradiogram", "setting": "phyB", "result": "both SPA1 and phyB independently phosphorylates PIF1 in vitro"}, {"measurement": "in vitro kinase assay, autoradiogram", "setting": "phyA", "result": "In this assay, both phyA and phyB phosphorylated PIF1 in vitro"}]}
